How the values were obtained:
[1] = molecular target: T1, Aurora Kinase A (Homo sapiens, UniProt O14965); assay: Biochemical enzyme assay for Aurora A activity (Caliper LC3000 / Desktop Profiler mobility shift); details: GST-Aurora A, 15 μM ATP, 90 min at 25° C.; LC3000 or Desktop Profiler; read-out: Aurora Kinase A IC50
T1 construct: full length Aurora A (1-403 amino acids); purchased Carna Biosciences 05-101
T1 sequence (O14965 1-403): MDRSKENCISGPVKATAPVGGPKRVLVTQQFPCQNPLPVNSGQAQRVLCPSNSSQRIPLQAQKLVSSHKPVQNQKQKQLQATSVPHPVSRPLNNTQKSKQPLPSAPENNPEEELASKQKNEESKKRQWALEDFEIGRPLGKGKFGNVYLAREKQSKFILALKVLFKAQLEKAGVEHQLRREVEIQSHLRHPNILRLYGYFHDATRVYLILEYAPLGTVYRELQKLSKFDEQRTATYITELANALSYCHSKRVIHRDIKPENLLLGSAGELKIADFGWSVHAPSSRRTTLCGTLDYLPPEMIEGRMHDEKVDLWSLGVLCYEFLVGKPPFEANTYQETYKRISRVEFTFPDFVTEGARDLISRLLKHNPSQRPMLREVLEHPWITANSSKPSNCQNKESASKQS
Protocol: (§1) The Aurora assays described here were performed on two Caliper Life Sciences systems, the LC3000 and the Desktop Profiler. These provide data on enzyme activity via measurement of the relative amounts of phosphorylated or unphosphorylated fluorescently labelled substrate peptide at the end of an enzymatic reaction. These different states of peptide are resolved by applying a potential difference across the sample. The presence of a charged phosphate group on the product (as opposed to the substrate) causes a different peptide mobility between the two peptides. This is visualized by excitation of a fluorescent label on the substrate and product peptides and represented as peaks within the analysis software.
In order to measure inhibitor activity of Aurora A inhibitors in the Caliper Life Sciences LC3000, a TTP Mosquito liquid handling instrument was used to place 0.25 μl of an appropriate concentration of inhibitor in 100% DMSO (for a dose response curve calculation) into each well of a 384-well plate.
The reaction was incubated for 90 min at 25° C., and then stopped by the addition of 70 μl of Stop buffer (100 mM HEPES pH 7.5, 0.015% Brij-35, 10 mM EDTA (Sigma, E7889)).
The plate was read on a Caliper LC 3000 in an Off-Chip mobility shift assay format, using the following parameters for a 12-sipper chip: screening pressure −1.8 psi, upstream voltage −2700, downstream voltage −1000. These conditions cause unphosphorylated substrate and phosphorylated product peptide to resolve as separate peaks allowing direct measurement of percentage of conversion of substrate to product.
(§2) The Desktop Profiler utilizes the same prinicipal as the LC 3000 for calculating percentage conversion of a substrate to product. Caliper Life Sciences provided proprietary flash frozen pre-made 384 well plates containing selected kinases. Each column in the 384 well plate contained a particular selected kinase. A second plate, the ‘substrate plate’ contained a mix of fluorescently labeled peptide substrate and ATP. These were arranged in columns so that transfer for substrate plate to enzyme plate provided the correct enzyme with the correct substrate/ATP concentration.
(§3) Compounds were added to a thawed enzyme plate in the desired format, in single concentrations. Reactions were initiated by transfer of the substrate/ATP mix from the substrate plate. The enzyme plate was incubated for 90 mins at 25° C. The reaction was stopped by addition of 70 μl of Stop Buffer (100 mM HEPES pH 7.5, 0.015% Brij-35, 10 mM EDTA (Sigma, E7889)).
Plates were read in a manner identical to that of the LC3000, and the ratio between substrate and product peaks provided the activity of the enzyme in that well.

[2] = molecular target: Aurora Kinase B (Homo sapiens, UniProt Q96GD4); assay: Biochemical enzyme assay for Aurora B activity (Caliper mobility shift); details: LC3000 or Desktop Profiler
Protocol: as §1, §2, §3
Plates were read in a manner identical to that of the LC3000, and the ratio between substrate and product peaks provided the activity of the enzyme in that well. This was best represented by a plate heat map which colors each well by percent inhibition as compared to positive and negative controls (no inhibitors and no ATP respectively).

Aurora Kinase B, sequence (Q96GD4 whole entry): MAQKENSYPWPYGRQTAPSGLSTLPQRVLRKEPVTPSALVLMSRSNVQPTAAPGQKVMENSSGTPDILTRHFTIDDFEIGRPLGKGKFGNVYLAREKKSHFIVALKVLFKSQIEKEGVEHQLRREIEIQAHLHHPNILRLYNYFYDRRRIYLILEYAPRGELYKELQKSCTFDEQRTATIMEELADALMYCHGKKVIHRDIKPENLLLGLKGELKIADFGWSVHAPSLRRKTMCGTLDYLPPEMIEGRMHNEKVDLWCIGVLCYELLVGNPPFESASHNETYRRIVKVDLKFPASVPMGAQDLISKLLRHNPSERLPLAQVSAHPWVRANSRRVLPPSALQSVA

| SMILES | IC50 [1] [nM] | IC50 [2] [nM] |
| --- | --- | --- |
| O=C(Nc1ccc(Nc2ccnc3[nH]c(=O)ccc23)cc1)c1ccc(C(F)(F)F)cc1 [Compound 38, 4-Trifluoromethyl-N-(4-(7-oxo-7,8-dihydro-1,8-naphthyridin-4-yl-amino)phenyl)benzamide] | > 1000 | > 1000 |
| O=C(Nc1ccc(Nc2ccnc3[nH]c(=O)cc(O)c23)cc1)c1ccccc1 [Compound 92, N-[4-(5-Hydroxy-7-oxo-7,8-dihydro-[1,8]naphthyridin-4-ylamino)-phenyl]-benzamide] | 1 to 300 | 1 to 300 |
| O=C(Nc1ccc(Nc2ccnc3[nH]c(=O)cc(OCC4CC4)c23)cc1)c1ccccc1 [Compound 93, N-[4-(5-Cyclopropylmethoxy-7-oxo-7,8-dihydro-[1,8]naphthyridin-4-ylamino)-phenyl]benzamide] | 1 to 300 | 1 to 300 |
| Nc1ccc(NC(=O)c2ccc(C(F)(F)F)cc2)cc1 [Compound 6, N-(4-Aminophenyl)-4-trifluoromethyl-benzamide] | 1 to 300 | 1 to 300 |
| Cc1cc(=O)[nH]c2nccc(Nc3ccc(NC(=O)c4ccccc4)cc3)c12 [Compound 94, N-[4-(5-Methyl-7-oxo-7,8-dihydro-[1,8]naphthyridin-4-ylamino)-phenyl]-benzamide] | 1 to 300 | 1 to 300 |
| O=C(Nc1ccc(Nc2ccnc3[nH]c(=O)ccc23)cc1)c1cccc(C(F)(F)F)c1F [Compound 39, 2-Fluoro-3-Trifluoromethyl-N-(4-(7-oxo-7,8-dihydro-1,8-naphthyridin-4-yl-amino)phenyl)benzamide] | > 1000 | > 1000 |
| Nc1ccc(NC(=O)c2ccc(C(F)(F)F)cc2F)cc1 [Compound 18, N-(4-Aminophenyl)-2-fluoro-4-trifluoromethyl-benzamide] | 1 to 300 | – |
| O=C(Nc1ccc(Nc2ccnc3[nH]c(=O)c([N+](=O)[O-])cc23)cc1)c1ccc(F)cc1C(F)(F)F [Compound 88, 4-Fluoro-2-trifluoromethyl-N-(4-(6-nitro-7-oxo-7,8-dihydro-1,8-naphthyridin-4-yl-amino)phenyl)benzamide] | 1 to 300 | – |
| O=C(Nc1ccc(Oc2ccnc3[nH]c(=O)ccc23)cc1)c1ccccc1 [Compound 46, N-(4-(7-oxo-7,8-dihydro-1,8-naphthyridin-4-yloxy)phenyl)benzamide] | 1 to 300 | – |
| O=C(Nc1ccc(Nc2ccnc3[nH]c(=O)c(C(=O)O)c(-c4ccccc4)c23)cc1)c1ccc(F)c(F)c1 [Compound 76, 5-[(3,4-Difluoro-benzoylamino)-phenylamino]-2-oxo-4-phenyl1,2-dihydro-1,8-naphthyridine-3-carboxylic acid] | 1 to 300 | – |
| O=C(O)Cc1cc2c(Cl)ccnc2[nH]c1=O [Compound 80, (5-Chloro-2-oxo-1,2-dihydro-1,8-naphthyridin-3-yl)-acetic acid] | 1 to 300 | – |
| CC(C)(C)OC(=O)c1c(-c2ccccc2)c2c(Cl)ccnc2[nH]c1=O [Compound 75, 5-Chloro-2-oxo-4-phenyl-1,2-dihydro-1,8-naphthyridi-3-carboxylic acid tert-butyl ester] | 1 to 300 | – |
| O=C(Cc1cc2c(Nc3ccc(NC(=O)c4ccc(F)c(F)c4)cc3)ccnc2[nH]c1=O)NCCO [Compound 82] | 1 to 300 | – |
| O=C(Nc1ccc(Nc2ccnc3[nH]c(=O)ccc23)cc1)c1cccc(F)c1 [Compound 35, 3-Fluoro-N-(4-(7-oxo-7,8-dihydro-1,8-naphthyridin-4-yl-amino)phenyl)benzamide] | 1 to 300 | – |
| O=C(Nc1ccc(Nc2ccnc3[nH]c(=O)ccc23)cc1)c1c(F)cccc1F [Compound 41, 2,6-Difluoro-N-(4-(7-oxo-7,8-dihydro-1,8-naphthyridin-4-yl-amino)phenyl)benzamide] | 1 to 300 | – |

More lines, now with the values ahead:

| IC50 [1] [nM] | IC50 [2] [nM] | SMILES |
| --- | --- | --- |
| 1 to 300 | 1 to 300 | Nc1ccc(NC(=O)c2c(F)cccc2F)cc1 [Compound 9, N-(4-Aminophenyl)-2,6-difluoro-benzamide] |
| 1 to 300 | 1 to 300 | Nc1cc2c(Nc3ccc(NC(=O)c4ccc(F)cc4C(F)(F)F)cc3)ccnc2[nH]c1=O [Compound 90, 4-Fluoro-2-trifluoromethyl-N-(4-(6-amino-7-oxo-7,8-dihydro-1,8-naphthyridin-4-yl-amino)phenyl)benzamide] |
| 1 to 300 | 1 to 300 | Cc1cc(=O)[nH]c2nccc(Nc3ccc(NC(=O)c4ccc(F)cc4C(F)(F)F)cc3)c12 [Compound 95, 4-Fluoro-N-[4-(5-methyl-7-oxo-7,8-dihydro-[1,8]naphthyridin-4-ylamino)-phenyl]-2 trifluoromethyl-benzamide] |
| 1 to 300 | 1 to 300 | Nc1cc2c(Nc3ccc(NC(=O)c4ccc(F)c(F)c4)cc3)ccnc2[nH]c1=O [Compound 89, 3,4-Difluoro-N-(4-(6-amino-7-oxo-7,8-dihydro-1,8-naphthyridin-4-yl-amino)phenyl)benzamide] |
| 601 to 1000 | 601 to 1000 | O=C(Nc1ccc(Nc2ccnc3[nH]c(=O)ccc23)cc1)c1ccccc1C(F)(F)F [Compound 37, 2-Trifluoromethyl-N-(4-(7-oxo-7,8-dihydro-1,8-naphthyridin-4-yl-amino)phenyl)benzamide] |
| 1 to 300 | 1 to 300 | O=C(Nc1ccc(Nc2ccnc3[nH]c(=O)cc(O)c23)cc1)c1ccc(F)cc1C(F)(F)F [Compound 91, 4-Fluoro-N-[4-(5-hydroxy-7-oxo-7,8-dihydro-[1,8]naphthyridin-4-ylamino)-phenyl]-2 trifluoromethyl-benzamide] |
| 1 to 300 | – | Cc1ccc(C(=O)Nc2ccc(N)cc2)cc1 [Compound 17, N-(4-Aminophenyl)-4-methyl-benzamide] |
| 1 to 300 | – | O=C(Nc1ccc(Nc2ccnc3[nH]c(=O)ccc23)cc1)c1ccc(F)cc1C(F)(F)F [Compound 40, 4-Fluoro-2-trifluoromethyl-N-(4-(7-oxo-7,8-dihydro-1,8-naphthyridin-4-yl-amino)phenyl)benzamide] |
| 1 to 300 | – | Nc1ccc(NC(=O)c2ccc(Cl)c(Cl)c2)cc1 [Compound 26, N-(4-Aminophenyl)-3,4-dichloro-benzamide] |
| 1 to 300 | – | Nc1ccc(NC(=O)c2c(Cl)cccc2Cl)cc1 [Compound 25, N-(4-Aminophenyl)-2,6-dichloro-benzamide] |
| 1 to 300 | – | O=C(Nc1ccc(Nc2ccnc3[nH]c(=O)ccc23)cc1)C1CCCCC1 [Compound 45, N-(4-(7-oxo-7,8-dihydro-1,8-naphthyridin-4-yl-amino)phenyl)cyclohexanecarboxamide] |
| 601 to 1000 | – | Cc1ccccc1C(=O)Nc1ccc(N)cc1 [Compound 22, N-(4-Aminophenyl)-2-methyl-benzamide] |
| 1 to 300 | – | CC(C)(C)C(=O)Nc1nccc(Cl)c1C(=O)c1ccccc1 [Compound 73, N-(3-Benzoyl-4-chloropyridin-2-yl)-2,2-dimethylpropanamide] |
| 1 to 300 | – | Nc1ccc(NC(=O)c2ccc(F)cc2C(F)(F)F)cc1 [Compound 8, N-(4-Aminophenyl)-4-fluoro-2-trifluoromethyl-benzamide] |
| 1 to 300 | – | O=C(Nc1ccc(Nc2ccnc3[nH]c(=O)ccc23)cc1)c1cc(F)cc(F)c1 [Compound 43, 3,5-Difluoro-N-(4-(7-oxo-7,8-dihydro-1,8-naphthyridin-4-yl-amino)phenyl)benzamide] |
| 1 to 300 | – | Nc1ccc(NC(=O)c2ccc(OC(F)(F)F)cc2)cc1 [Compound 21, N-(4-Aminophenyl)-4-trifluoromethoxy-benzamide] |
| 1 to 300 | – | O=C(Nc1ccc(Nc2ccnc3[nH]c(=O)ccc23)cc1)c1ccc(F)cc1 [Compound 36, 4-Fluoro-N-(4-(7-oxo-7,8-dihydro-1,8-naphthyridin-4-yl-amino)phenyl)benzamide] |
